From patent publication US20260206755A1, “COMPOUNDS AND COMPOSITIONS HAVING KNOCK-DOWN OR BLOOD FEED INHIBITION ACTIVITY AGAINST INSECT PESTS” (priority 2017, published 2026)
Read-outs that look alike come from different tables or passages of the source.

System: Anopheles stephensi
Assay: Anopheles stephensi treated well plate contact test: knockdown and mortality
Assay type: in vivo
Conditions: for Knock Down, with TFNA-AM / Knock Down, without TFNA-AM / pest or weed control at 0.02 ppm / pest or weed control at 0.2 ppm / pest or weed control at 2 ppm / pest or weed control at 20 ppm / pest or weed control at 200 ppm: knockdown after 1 hour; for mortality at 0.02 ppm / pest or weed control at 0.02 ppm / mortality at 0.2 ppm / pest or weed control at 0.2 ppm / mortality at 2 ppm / pest or weed control at 2 ppm / mortality at 20 ppm / pest or weed control at 20 ppm / mortality at 200 ppm / pest or weed control at 200 ppm: Anopheles stephensi; for pest or weed control at 0.02 ppm / pest or weed control at 0.2 ppm / pest or weed control at 2 ppm / pest or weed control at 20 ppm / pest or weed control at 200 ppm: read-out: Knock Down, without TFNA-AM
Experimental: Examples Anopheles stephensi (Indian Malaria Mosquito)
The individual wells of twelve (12) well tissue culture plates were treated with 200 μl of an ethanol solution containing a test compound of Table 1 or Table 2 at a defined concentration and repeated with also 200 μl of an ethanol solution containing in addition 2 ppm TFNA-AM. Once the deposits were dry, five non-blood fed adult female Anopheles stephensi (between two to five day old) were added to each well, and sustained with a 10% sucrose solution in a cotton wool plug. Assessment of the knockdown after 1 hour, and mortality after 24 and 48 hours was carried out.
In case of multiple tests, the mean value is reported.

[1] = test compound 0.2 ppm plus 2 ppm TFNA-AM, after 24 hours
[2] = test compound 0.2 ppm plus 2 ppm TFNA-AM, after 48 hours
[3] = test compound 0.2 ppm plus 2 ppm TFNA-AM
[4] = test compound 0.2 ppm, without TFNA-AM, after 24 hours
[5] = test compound 0.2 ppm, without TFNA-AM, after 48 hours
[6] = test compound 0.2 ppm, without TFNA-AM
[7] = test compound 2 ppm plus 2 ppm TFNA-AM, after 24 hours
[8] = test compound 2 ppm plus 2 ppm TFNA-AM, after 48 hours
[9] = test compound 2 ppm plus 2 ppm TFNA-AM
[10] = test compound 2 ppm, without TFNA-AM, after 24 hours
[11] = test compound 2 ppm, without TFNA-AM, after 48 hours
[12] = test compound 2 ppm, without TFNA-AM
[13] = test compound 20 ppm plus 2 ppm TFNA-AM, after 24 hours
[14] = test compound 20 ppm plus 2 ppm TFNA-AM, after 48 hours
[15] = test compound 20 ppm plus 2 ppm TFNA-AM
[16] = test compound 20 ppm, without TFNA-AM, after 24 hours
[17] = test compound 20 ppm, without TFNA-AM, after 48 hours
[18] = test compound 20 ppm, without TFNA-AM
[19] = test compound 200 ppm plus 2 ppm TFNA-AM, after 24 hours
[20] = test compound 200 ppm plus 2 ppm TFNA-AM, after 48 hours
[21] = test compound 200 ppm plus 2 ppm TFNA-AM
[22] = test compound 200 ppm, without TFNA-AM, after 24 hours
[23] = test compound 200 ppm, without TFNA-AM, after 48 hours
[24] = test compound 200 ppm, without TFNA-AM, adult females
[25] = test compound 0.02 ppm, without TFNA-AM
[26] = test compound 0.2 ppm, without TFNA-AM, after 24 hours, read-out: mortality % 24, without TFNA-AM
[27] = test compound 0.2 ppm, without TFNA-AM, after 48 hours, read-out: mortality % 48, without TFNA-AM
[28] = test compound 2 ppm, without TFNA-AM, after 24 hours, read-out: mortality % 24, without TFNA-AM
[29] = test compound 2 ppm, without TFNA-AM, after 48 hours, read-out: mortality % 48, without TFNA-AM
[30] = test compound 20 ppm, without TFNA-AM, after 24 hours, read-out: mortality % 24, without TFNA-AM
[31] = test compound 20 ppm, without TFNA-AM, after 48 hours, read-out: mortality % 48, without TFNA-AM
[32] = test compound 0.02 ppm plus 2 ppm TFNA-AM, after 24 hours
[33] = test compound 0.02 ppm plus 2 ppm TFNA-AM, after 48 hours
[34] = test compound 0.02 ppm plus 2 ppm TFNA-AM
[35] = test compound 200 ppm, without TFNA-AM, after 24 hours, read-out: mortality % 24, without TFNA-AM
[36] = test compound 200 ppm, without TFNA-AM, after 48 hours, read-out: mortality % 48, without TFNA-AM
[37] = 24 h, read-out: mortality % 24, without TFNA-AM
[38] = 48 h, read-out: mortality % 48, without TFNA-AM

| Compound | mortality % 24, with TFNA-AM [1] [%] | mortality % 48, with TFNA-AM [2] [%] | Knock Down, with TFNA-AM [3] [%] | mortality % 24, without TFNA-AM [4] [%] | mortality % 48, without TFNA-AM [5] [%] | Knock Down, without TFNA-AM [6] [%] | mortality % 24, with TFNA-AM [7] [%] | mortality % 48, with TFNA-AM [8] [%] | Knock Down, with TFNA-AM [9] [%] | mortality % 24, without TFNA-AM [10] [%] | mortality % 48, without TFNA-AM [11] [%] | mortality % 24, with TFNA-AM [13] [%] | mortality % 48, with TFNA-AM [14] [%] | Knock Down, with TFNA-AM [15] [%] | mortality % 24, with TFNA-AM [19] [%] | mortality % 48, with TFNA-AM [20] [%] | Knock Down, with TFNA-AM [21] [%] | pest or weed control at 0.2 ppm [6] [%] | pest or weed control at 2 ppm [12] [%] | pest or weed control at 20 ppm [18] [%] | further results |
| --- | --- | --- | --- | --- | --- | --- | --- | --- | --- | --- | --- | --- | --- | --- | --- | --- | --- | --- | --- | --- | --- |
| N#Cc1ccc(CC(=NNC(=O)Nc2ccc(OC(F)(F)F)cc2)c2cccc(C(F)(F)F)c2)cc1 (mixture of isomers) [Metaflumizone] | 40 | 60 | 100 | 0 | 0 | 0 | 100 | 100 | 100 | 0 | 0 | 100 | 100 | 100 | 100 | 100 | 100 | – | – | – | Knock Down, without TFNA-AM [12]: 0%; mortality % 24, without TFNA-AM [16]: 0%; mortality % 48, without TFNA-AM [17]: 0%; Knock Down, without TFNA-AM [18]: 0%; mortality % 24, without TFNA-AM [22]: 0%; mortality % 48, without TFNA-AM [23]: 80%; Knock Down, without TFNA-AM [24]: 0% |
| Cc1c(COC(=O)[C@@H]2[C@H](/C=C(\Cl)C(F)(F)F)C2(C)C)cccc1-c1ccccc1 (racemic) [Bifenthrin] | 100 | 100 | 100 | – | – | – | 100 | 100 | 100 | – | – | 100 | 100 | 100 | – | – | – | 20 | 100 | 100 | mortality at 0.02 ppm (test compound 0.02 ppm, without TFNA-AM, after 24 hours, read-out: mortality % 24, without TFNA-AM): 20%; mortality at 0.02 ppm (test compound 0.02 ppm, without TFNA-AM, after 48 hours, read-out: mortality % 48, without TFNA-AM): 60%; pest or weed control at 0.02 ppm [25]: 20%; mortality at 0.2 ppm [26]: 100%; mortality at 0.2 ppm [27]: 100%; mortality at 2 ppm [28]: 100%; mortality at 2 ppm [29]: 100%; mortality at 20 ppm [30]: 100%; mortality at 20 ppm [31]: 100%; mortality % 24, with TFNA-AM [32]: 100%; mortality % 48, with TFNA-AM [33]: 100%; Knock Down, with TFNA-AM [34]: 100% |
| CC(C)=C[C@@H]1[C@@H](C(=O)O[C@H](C#N)c2cccc(Oc3ccccc3)c2)C1(C)C (relative stereo) [d-d, trans cyphenothrin] | 60 | 100 | 100 | 0 | 0 | 0 | 100 | 100 | 100 | 0 | 0 | 100 | 100 | 100 | – | – | – | – | – | – | mortality % 24, with TFNA-AM [32]: 60%; mortality % 48, with TFNA-AM [33]: 20%; Knock Down, with TFNA-AM [34]: 100%; mortality % 24, without TFNA-AM (test compound 0.02 ppm, without TFNA-AM, after 24 hours): 0%; mortality % 48, without TFNA-AM (test compound 0.02 ppm, without TFNA-AM, after 48 hours): 0%; Knock Down, without TFNA-AM [25]: 0%; Knock Down, without TFNA-AM [12]: 0%; mortality % 24, without TFNA-AM [16]: 40%; mortality % 48, without TFNA-AM [17]: 60%; Knock Down, without TFNA-AM [18]: 0% |
| Cc1ccc(/N=C/N(C)/C=N/c2ccc(C)cc2C)c(C)c1 [Amitraz] | 20 | 0 | 100 | – | – | – | 20 | 0 | 100 | – | – | 20 | 40 | 100 | 100 | 100 | 100 | 0 | 0 | 0 | mortality at 0.2 ppm [26]: 0%; mortality at 0.2 ppm [27]: 0%; mortality at 2 ppm [28]: 0%; mortality at 2 ppm [29]: 0%; mortality at 20 ppm [30]: 0%; mortality at 20 ppm [31]: 0%; mortality at 200 ppm [35]: 0%; mortality at 200 ppm [36]: 0%; pest or weed control at 200 ppm [24]: 0% |
| C/C=C(\C)C(=O)O[C@H]1C[C@@H](OC(C)=O)[C@@]2(C(=O)OC)CO[C@H]3[C@@H](O)[C@@](C)([C@]45O[C@@]4(C)[C@H]4C[C@@H]5O[C@@H]5OC=C[C@@]54O)[C@H]4[C@]1(CO[C@]4(O)C(=O)OC)[C@@H]32 [Azadirachtin] | 20 | 20 | 100 | – | – | – | 20 | 20 | 100 | – | – | 60 | 40 | 100 | 80 | 80 | 100 | 0 | 0 | 0 | mortality at 0.2 ppm [26]: 0%; mortality at 0.2 ppm [27]: 0%; mortality at 2 ppm [28]: 0%; mortality at 2 ppm [29]: 0%; mortality at 20 ppm [30]: 0%; mortality at 20 ppm [31]: 0%; mortality at 200 ppm [35]: 0%; mortality at 200 ppm [36]: 0%; pest or weed control at 200 ppm [24]: 0% |
| CNC(=O)Oc1cccc2c1OC(C)(C)O2 [Bendiocarb] | 100 | 100 | 100 | – | – | – | 100 | 100 | 100 | – | – | 100 | 100 | 100 | – | – | – | 20 | 100 | 100 | mortality at 0.02 ppm [37]: 0%; mortality at 0.2 ppm [37]: 60%; mortality at 2 ppm [37]: 100%; mortality at 20 ppm [37]: 100%; mortality at 0.02 ppm [38]: 0%; mortality at 0.2 ppm [38]: 60%; mortality at 2 ppm [38]: 100%; mortality at 20 ppm [38]: 100%; pest or weed control at 0.02 ppm [25]: 0%; mortality % 24, with TFNA-AM [32]: 20%; Knock Down, with TFNA-AM [34]: 100% |
| CN(C(=O)c1ccccc1)c1cccc(C(=O)Nc2c(Br)cc(C(F)(C(F)(F)F)C(F)(F)F)cc2C(F)(F)F)c1F [Broflanilide] | 87 | 93 | 100 | 0 | 20 | 0 | 100 | 100 | 100 | 100 | 100 | 100 | 100 | 93 | 100 | 100 | 87 | – | – | – | Knock Down, without TFNA-AM [12]: 0%; mortality % 24, without TFNA-AM [16]: 100%; mortality % 48, without TFNA-AM [17]: 100%; Knock Down, without TFNA-AM [18]: 0%; mortality % 24, without TFNA-AM [22]: 100%; mortality % 48, without TFNA-AM [23]: 100%; Knock Down, without TFNA-AM [24]: 0% |
